Patent US6346603B1, “Crystal of depsipeptide derivative and process for producing the same” (Fujisawa Pharmaceutical Co., Ltd., priority 1997, dated 2002)

Experiments:
Type in all cases: physicochemical
[1] = Water content after standing at ambient temperature to constant weight; details: left to stand at ambient temperature until weight reached constant value
Procedure: (§1) The crystals (I), (II) and (III) of the depsipeptide derivative (IV), thus recovered in the aforementioned manners, were examined about the filtration properties during crystallization, the specific volume and water content, by using the prior art crystal (V) for comparison.
As to the water content, additionally, each crystal was left to stand at ambient temperature until its weight reached constant value, wherein an amount of water containing in the crystal was measured in %.

[2] = Filtration properties during crystallization, observed with the naked eye; parameters: key: ⊚: very great filtration properties; ◯: good filtration properties; Δ: poor filtration properties; X: very poor filtration properties; details: observation with the naked eye
Procedure: as §1
The filtration properties during crystallization were evaluated on the following standards under observation with the naked eye.
⊚: very great filtration properties
◯: good filtration properties
Δ: poor filtration properties
X: very poor filtration properties

[3] = Fluidity (adhesion properties) of the crystal; details: not shown in Table 6; adhesion to machines during production

Row | Compound | Water content [1] | Filtration property during crystallization [2] | Fluidity (adhesion properties) [3]
1 | CC(C)CC1C(=O)OC(Cc2ccc(N3CCOCC3)cc2)C(=O)N(C)C(CC(C)C)C(=O)OC(C)C(=O)CCCCN1C (stereo not shown) [Crystal (I)] | 3.16% | × | 
2 | CC(C)CC1C(=O)OC(Cc2ccc(N3CCOCC3)cc2)C(=O)N(C)C(CC(C)C)C(=O)OC(C)C(=O)CCCCN1C (stereo not shown) [Crystal (III)] | 0.20% | ◯ | 
3 | CC(C)CC1C(=O)OC(Cc2ccc(N3CCOCC3)cc2)C(=O)N(C)C(CC(C)C)C(=O)OC(C)C(=O)CCCCN1C (stereo not shown) [Crystal (II)] | 0.98% | ⊚ | great fluidity
4 | CC(C)CC1C(=O)OC(Cc2ccc(N3CCOCC3)cc2)C(=O)N(C)C(CC(C)C)C(=O)OC(C)C(=O)CCCCN1C (stereo not shown) [Prior art Crystal (V), reference compound] | 2.45% | × | poor fluidity
